Laboratory results taken from ChEMBL document CHEMBL1201862, “PubChem BioAssay data set” (2004).
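Protocol summary: plate cells (96-well), add compound at 5 concentrations, incubate 48 h, interpolate endpoints linearly. Here, GI50 denotes the concentration required for 50% inhibition of growth.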 Active and inactive are the calls of the source. Rule as the data show it: active = GI50 up to about 1.1 µM and inactive = higher.

Legend:
Experiment in all cases: inhibition of tumour cell growth, NCI panel, 48 h
SW-620 = system: SW-620
SK-OV-3 = system: SK-OV-3
SF-539 = system: SF-539
MDA-N = system: MDA-N
SK-MEL-28 = system: SK-MEL-28
SK-MEL-5 = system: SK-MEL-5
ACHN = system: ACHN
IGROV-1 = system: IGROV-1
SN12C = system: SN12C
M14 = system: M14
Hs-578T = system: Hs-578T
K562 = system: K562
U-251 = system: U-251
SNB-19 = system: SNB-19
NCI-H522 = system: NCI-H522
MDA-MB-435 = system: MDA-MB-435
Malme-3M = system: Malme-3M
EKVX = system: EKVX
CCRF-CEM = system: CCRF-CEM
A498 = system: A498

| SMILES | GI50 (SW-620) | GI50 (SK-OV-3) | GI50 (SF-539) | GI50 (MDA-N) | GI50 (SK-MEL-28) | GI50 (SK-MEL-5) | GI50 (ACHN) | GI50 (IGROV-1) | GI50 (SN12C) | GI50 (M14) | GI50 (Hs-578T) | GI50 (K562) | GI50 (U-251) | GI50 (SNB-19) | GI50 (NCI-H522) | GI50 (MDA-MB-435) | GI50 (Malme-3M) | GI50 (EKVX) | GI50 (CCRF-CEM) | GI50 (A498) |
| --- | --- | --- | --- | --- | --- | --- | --- | --- | --- | --- | --- | --- | --- | --- | --- | --- | --- | --- | --- | --- |
| O=Cc1ccc2c(c1)CC1(C2)Cc2ccc3c(c2C1)CCC3 (stereo not given) | 3.98 µM (inactive) | 18.2 µM (inactive) | 9.02 µM (inactive) | 2.19 µM (inactive) | 12.7 µM (inactive) | 4.81 µM (inactive) | 32.1 µM (inactive) | 16.4 µM (inactive) | 8.45 µM (inactive) | 7 µM (inactive) | 7.41 µM (inactive) | 6.34 µM (inactive) | 8.51 µM (inactive) | 7.08 µM (inactive) | 34.8 µM (inactive) | 2.46 µM (inactive) | 6.22 µM (inactive) | 24.3 µM (inactive) | 5.14 µM (inactive) | 23.8 µM (inactive) |
| COc1cccc2c1cc([N+](=O)[O-])c1c(C(=O)O)cc3c(c12)OCO3 [ARISTOLOCHIC ACID] | 32 µM (inactive) | 49.5 µM (inactive) | 24.9 µM (inactive) | > 100 µM (inactive) | 41.9 µM (inactive) | 44 µM (inactive) | 41.6 µM (inactive) | 29.4 µM (inactive) | > 74.3 µM (inactive) | 43.9 µM (inactive) | 52.8 µM (inactive) | 33.9 µM (inactive) | 36.9 µM (inactive) | 37.5 µM (inactive) | 28.1 µM (inactive) | 54.8 µM (inactive) | 46.8 µM (inactive) | 43.4 µM (inactive) | 20 µM (inactive) | 29.4 µM (inactive) |
| COC(=O)C1=C(C)NC(C)=C(C(=O)OCCCN2CCC(c3ccccc3)(c3ccccc3)CC2)[C@H]1c1cccc([N+](=O)[O-])c1 [NIGULDIPINE] | 1.92 µM (inactive) | 5.24 µM (inactive) | 1.8 µM (inactive) | 1.97 µM (inactive) | 1.88 µM (inactive) | 1.75 µM (inactive) | 1.66 µM (inactive) | 1.8 µM (inactive) | 1.58 µM (inactive) | 1.69 µM (inactive) | 1.69 µM (inactive) | 0.946 µM (active) | 1.8 µM (inactive) | 1.7 µM (inactive) | 2.49 µM (inactive) | 1.63 µM (inactive) | 2.07 µM (inactive) | 2 µM (inactive) | 1.14 µM (inactive) | 4.53 µM (inactive) |
